{
  "source": "patent US20240238247A1",
  "about": "“METHOD OF TREATING EXPRESSIVE LANGUAGE DEFICIT IN AUTISTIC HUMANS” (AMS Therapeutics, priority 2022, published 2024)",
  "assay_type_in_all_cases": "in vivo",
  "key": {"[1]": {"test_system": "autistic human patients with expressive language deficit", "assay": "Expressive language (verbal output) graded on 7-point scale (0-6) in autistic patients treated with ethosuximide (ETS)", "conditions": "for mean expressive language score after six months (Rx): FIG. 1; for Improvement Over Baseline, Expressive language: after six months of ETS therapy; for mean improvement in expressive language score: normal IQ patients (N=8) treated more than one month, 7-point scale of Table 1", "experimental": "To assess the effectiveness of ethosuximide as a pharmacological treatment for expressive language deficit, 24 human patients were treated with ethosuximide (ETS) for at least one month, more preferably six months or longer, and their language, social, and behavioral skills were monitored throughout the course of treatment, typically every 1-3 months. Study participants (subjects) were divided into four treatment groups based on neurodevelopmental level (mental status): normal IQ (NIQ), borderline IQ (BIQ), mild mental retardation (mMR), and moderate mental retardation (moMR). Language skills (expressiveness, receptivity), social behavior (social interaction, eye contact, participation), and mood (affect, irritability, agitation) were evaluated at various points in time. Verbal output was graded using a 7-point scale (0-6), where 0=nonverbal, 1=echolalic (the patient can respond by echoing the speaker), 2=single words (the patient can respond in single words), 3=phrases (the patient can respond in a simple phrase), 4=sentences (the patient can respond in a full sentence), 5=spontaneous speech (the patient can speak spontaneously), and 6=mutual speech (the patient can have a true conversation with another person). [table] To evaluate drug efficacy and onset of action, each patient was monitored for changes in language, social behavior, and mood at various times after commencement of ETS therapy. Performance characteristics observed for each function (expressive language, mood, behavior) are summarized in Table 6, at t=1 month after commencement of treatment and t=3 months after commencement of treatment."}, "autistic human patients [2]": {"test_system": "autistic human patients", "assay": "Social behavior graded on 7-point scale (-3 to +3 vs baseline), based on Aberrant Behavior Checklist, in autistic patients treated with ETS", "conditions": "for Improvement Over Baseline, Social behavior: after six months of ETS therapy", "experimental": "(§1) To assess the effectiveness of ethosuximide as a pharmacological treatment for expressive language deficit, 24 human patients were treated with ethosuximide (ETS) for at least one month, more preferably six months or longer, and their language, social, and behavioral skills were monitored throughout the course of treatment, typically every 1-3 months. Study participants (subjects) were divided into four treatment groups based on neurodevelopmental level (mental status): normal IQ (NIQ), borderline IQ (BIQ), mild mental retardation (mMR), and moderate mental retardation (moMR). Language skills (expressiveness, receptivity), social behavior (social interaction, eye contact, participation), and mood (affect, irritability, agitation) were evaluated at various points in time. Verbal output was graded using a 7-point scale (0-6), where 0=nonverbal, 1=echolalic (the patient can respond by echoing the speaker), 2=single words (the patient can respond in single words), 3=phrases (the patient can respond in a simple phrase), 4=sentences (the patient can respond in a full sentence), 5=spontaneous speech (the patient can speak spontaneously), and 6=mutual speech (the patient can have a true conversation with another person). Social behavior and mood symptoms, based on those described in the Aberrant Behavior Checklist, an established behavioral rating system used in evaluating patients with intellectual disabilities (see Aman, M. G., et al., “The Aberrant Behavior Checklist: A behavior rating scale for the assessment of treatment effects,” American Journal of Mental Deficiency, 89(5):485-491 (1985), incorporated by reference herein), were also graded on a 7-point scale (0±3). […] Social behavior and mood data are presented below in Table 8. To evaluate drug efficacy and onset of action, each patient was monitored for changes in language, social behavior, and mood at various times after commencement of ETS therapy. Performance characteristics observed for each function (expressive language, mood, behavior) are summarized in Table 6, at t=1 month after commencement of treatment and t=3 months after commencement of treatment."}, "autistic human patients [3]": {"test_system": "autistic human patients", "assay": "Mood graded on 7-point scale (-3 to +3 vs baseline), based on Aberrant Behavior Checklist, in autistic patients treated with ETS", "conditions": "for Improvement Over Baseline, Mood: after six months of ETS therapy", "experimental": "as §1"}, "autistic human patients [4]": {"test_system": "autistic human patients", "assay": "Tolerability / side effects of ETS treatment in the study patients", "text": "Common side effects reported in the literature for patients receiving ethosuximide treatment for childhood absence epilepsy include abdominal distress, diarrhea, weight loss, hyperactivity, lethargy, leukopenia, and depression. Very few of these symptoms were reported or observed in the patients participating in the study herein described. Eleven patients stopped ETS treatment after 6 months or less. Five of these patients dropped out for non-medical reasons."}, "[5]": {"conditions": "normal IQ patients, Aberrant Behavior Checklist methodology"}},
  "note": "Entries after “also recorded” stand apart in the source; their conditions may differ.",
  "data": [
    {"smiles": "CCC1(C)CC(=O)NC1=O", "note": "(centres unmarked) [ETS, 2-ethyl-2-methylsuccinimide]", "values": [
      {"measurement": "mean expressive language score after six months (Rx)", "setting": "[1]; BIQ group, N=4, baseline 1.7, 0-6 scale", "result": 2.75},
      {"measurement": "Improvement Over Baseline, Expressive language", "setting": "[1]; BIQ", "result": "+1.0"},
      {"measurement": "mean expressive language score after six months (Rx)", "setting": "[1]; NIQ group, N=8, baseline 2.5, 0-6 scale", "result": 4.4},
      {"measurement": "Improvement Over Baseline, Expressive language", "setting": "[1]; NIQ", "result": "+2.0"},
      {"measurement": "expressive language score", "setting": "[1]; Patient A, after 3 months, baseline score 2 (single words)", "result": 3},
      {"measurement": "expressive language, observation", "setting": "[1]; Patient A, at 6-9 months", "result": "responding in full sentences"},
      {"measurement": "expressive language, observation", "setting": "[1]; Patient A, at 9-12 months", "result": "speak spontaneously and even ask questions"},
      {"measurement": "Language development", "setting": "[1]; Patient A, baseline SW, 1 mo.", "result": "Increased"},
      {"measurement": "Language development (expressive language class)", "setting": "[1]; Patient A, baseline SW, 3 mo.", "result": "PH (Phrases)"},
      {"measurement": "Language development (expressive language class)", "setting": "[1]; Patient A, baseline SW, 6 mo.", "result": "SN/SP"},
      {"measurement": "Language development (expressive language class)", "setting": "[1]; Patient A, baseline SW, 9 mo.", "result": "SN/SP"},
      {"measurement": "Language development (expressive language class)", "setting": "[1]; Patient A, baseline SW, 12 mo.", "result": "SN/SP/MU"},
      {"measurement": "expressive language, observation", "setting": "[1]; Patient A, one month after onset of ETS treatment, baseline score 2", "result": "saying more words"},
      {"measurement": "Language development (4-word PH)", "setting": "[1]; Patient B, baseline EC/2-word PH, 3 mo.", "result": "4-word"},
      {"measurement": "Language development (expressive language class)", "setting": "[1]; Patient B, baseline EC/2-word PH, 6 mo.", "result": "SN (Sentences)"},
      {"measurement": "Language development (expressive language class)", "setting": "[1]; Patient B, baseline EC/2-word PH, 9 mo.", "result": "SN/SP"},
      {"measurement": "expressive language, observation", "setting": "[1]; Patient B, by month 6", "result": "speak in sentences"},
      {"measurement": "expressive language, observation", "setting": "[1]; Patient B, by month 9", "result": "converse spontaneously at times"},
      {"measurement": "expressive language, observation", "setting": "[1]; Patient B, three months after onset of treatment, echolalic, some two-word phrases before", "result": "3 and 4-word phrases"},
      {"measurement": "expressive language skills during treatment", "setting": "[1]; Patient C, autistic child, 6 months of ETS, FIG. 3", "result": "steadily improved"},
      {"measurement": "expressive language, observation", "setting": "[1]; Patients A and B (normal IQ), by 9 months from commencement of treatment, FIG. 2", "result": "some spontaneous speech"},
      {"measurement": "language skills after ETS treatment was stopped", "setting": "[1]; Patients C (stopped at 6 months) and D (stopped at 9 months), evaluated several months later, FIG. 3", "result": "continued to improve"},
      {"measurement": "Expressive language: increased word count (talking more), score change", "setting": "[1]; after 1 month of treatment", "result": "count (+1)"},
      {"measurement": "Expressive language, observed performance", "setting": "[1]; after 3 months of treatment", "result": "2-word phrases and Listening better and makes wants clearer"},
      {"measurement": "effect on expressive language skills", "setting": "[1]; both epileptic (7 of 24) and non-epileptic patients", "result": "improved"},
      {"measurement": "mean expressive language score after six months (Rx)", "setting": "[1]; mMR group, N=6, baseline 1.3, 0-6 scale", "result": 2.5},
      {"measurement": "Improvement Over Baseline, Expressive language", "setting": "[1]; mMR", "result": "+1.2"},
      {"measurement": "mean expressive language score after six months (Rx)", "setting": "[1]; moMR group, N=2, baseline 0.5, 0-6 scale", "result": 1.0},
      {"measurement": "Improvement Over Baseline, Expressive language", "setting": "[1]; moMR", "result": "+0.5"},
      {"measurement": "mean improvement in expressive language score", "setting": "[1]", "result": 1.9, "unit": "points"},
      {"measurement": "mean improvement in expressive language score", "setting": "[1]; listed as ethosuximide", "result": "about 2 points"},
      {"measurement": "improvements in expressive language and social skills", "setting": "[1]; one month after commencing daily treatment", "result": "evident"},
      {"measurement": "retention of language gains after discontinuation", "setting": "[1]; patients who discontinued treatment (after six months)", "result": "did not lose their language gains"},
      {"measurement": "Improvement Over Baseline, Social behavior", "setting": "autistic human patients [2]; BIQ", "result": "+1.5"},
      {"measurement": "Improvement Over Baseline, Social behavior", "setting": "autistic human patients [2]; NIQ", "result": "+2.0"},
      {"measurement": "Social behavior, observed performance", "setting": "autistic human patients [2]; after 1 month of treatment", "result": "More engaged"},
      {"measurement": "Social behavior: increased eye contact, score change", "setting": "autistic human patients [2]; after 1 month of treatment", "result": "contact (+1)"},
      {"measurement": "Social behavior, observed performance", "setting": "autistic human patients [2]; after 3 months of treatment", "result": "Sits in groups"},
      {"measurement": "Improvement Over Baseline, Social behavior", "setting": "autistic human patients [2]; mMR", "result": "+1.0"},
      {"measurement": "Improvement Over Baseline, Social behavior", "setting": "autistic human patients [2]; moMR", "result": "+1.0"},
      {"measurement": "gain in social behavior", "setting": "autistic human patients [2]; [5]", "result": "+2 points"},
      {"measurement": "Improvement Over Baseline, Mood", "setting": "autistic human patients [3]; BIQ", "result": "+1.4"},
      {"measurement": "Improvement Over Baseline, Mood", "setting": "autistic human patients [3]; NIQ", "result": "+1.2"},
      {"measurement": "Mood / focus observation", "setting": "autistic human patients [3]; Patient B, 3 months after onset of treatment", "result": "more focused and calmer; also recorded: focused; also recorded: calmer"},
      {"measurement": "Mood: calmer, score change", "setting": "autistic human patients [3]; after 1 month of treatment", "result": "Calmer (+1)"},
      {"measurement": "Mood: more focused, score change", "setting": "autistic human patients [3]; after 1 month of treatment", "result": "More focused (+1)"},
      {"measurement": "Mood, observed performance", "setting": "autistic human patients [3]; after 3 months of treatment", "result": "Fewer tantrums"},
      {"measurement": "Improvement Over Baseline, Mood", "setting": "autistic human patients [3]; mMR", "result": "+1.0"},
      {"measurement": "Improvement Over Baseline, Mood", "setting": "autistic human patients [3]; moMR", "result": 0.0},
      {"measurement": "Improvement Over Baseline, Mood", "setting": "autistic human patients [3]; moMR, listed as ethosuximide", "result": "no change"},
      {"measurement": "gain in mood", "setting": "autistic human patients [3]; [5]", "result": "+1.2 points"},
      {"measurement": "tolerability", "setting": "autistic human patients [4]; all ages evaluated (3-24 years), 150-1000 mg b.i.d.", "result": "well tolerated"},
      {"measurement": "literature side effects (abdominal distress, diarrhea, weight loss, hyperactivity, lethargy, leukopenia, depression) reported or observed", "setting": "autistic human patients [4]; patients participating in the study", "result": "Very few"}
    ]}
  ]
}
